# Values quoted from earlier work, collected in PMC11693862 (Acta Biochimica et Biophysica Sinica, 2024).
# What was measured:
# [1] = test system: Mpros of HCoV-NL63, HCoV-HUK1, MERS-CoV, and SARS-CoV; details: cited from earlier work
# SARS-CoV and HCoV-229E = details: cited from earlier work
# [2] = in vivo; cited from earlier work
compound,measurement,setting,value
COc1cccc2[nH]c(C(=O)NC(CC(C)C)C(=O)NC(CC3CCNC3=O)C(=O)CO)cc12 (stereo not drawn) [PF-00835231],"Inhibition of Mpros of HCoV-NL63, HCoV-HUK1, MERS-CoV, and SARS-CoV",[1],inhibits
same,"Antiviral activity, semi-maximum effective concentration (EC50)",SARS-CoV and HCoV-229E,very low
same,Oral bio-availability,[2],relatively poor
